The values below are quoted from earlier work in US4867987A, “Pharmaceutical product for the sustained release of ibuprofen” (priority 1986, dated 1989).

For `CC(C)Cc1ccc(C(C)C(=O)O)cc1` (stereo not shown) [ibuprofen, 2-(4-isobutylphenyl)propionic acid], the “complete elimination of ibuprofen and its metabolites after the last administration” value is at most 24 h.
